# Measurements reported in US20150072933A1, “NOVEL SEQUENCES FOR THE CONTROL OF REPRODUCTION IN FISH” (Yissum Research Development Company of the Hebrew …, priority 2011, published 2015).
# Entries after “also recorded” stand apart in the source; their conditions may differ. *1 amine or outer side, *2 acyl side, *3 side chain or, on linkers, in order; H or OH if unused. Where a SMILES comes first, the peptide text is derived from it. [ ]: non-standard residue; d: D form. NMeF = CN[C@@H](Cc1ccccc1)C(=O)O; Suc = O=C(CCC(=O)[*:2])[*:1]; NMeV = CN[C@H](C(=O)O)C(C)C
# Assays:
# zfTac3rb [1] = assay: Receptor transactivation assay, SRE-Luc reporter (PKC activation), COS-7 cells expressing zfTac3rb; format: cell-based, zebrafish; conditions: mean ± SEM
# Method: (§1) In order to study the signaling pathways of the novel zebrafish NKBs, the entire coding regions of zftac3ra (denoted by SEQ ID NO:6) or zftac3rb (denoted by SEQ ID NO:7), or the cDNA clone for human NK3R (obtained from the Missouri S&T cDNA Resource Center, were inserted into pcDNA3.1 (Invitrogen). The luciferase assay was conducted according to Biran et al., 2008 [4] COS-7 cells were grown in DMEM supplemented with 10% FBS, 1% glutamine, 100 U/ml penicillin, and […] streptomycin (Biological Industries) under 5% CO2 until confluent. Cotransfection of either pc-zftac3ra, pc-zftac3rb or pc-Htac3r (at 3 μg/plate), a reporter plasmid (at 2 μg/plate), and pCMV-β-galactosidase (at 1 μg/plate) was carried out with FuGENE 6.0 reagent (Roche). The cells were serum starved for 36 h, stimulated with vehicle or various concentrations of either human (Sigma) or zebrafish NKBs for 6 h, and then harvested and analyzed. Lysates prepared from the harvested cells were assayed for both luciferase activity and β-galactosidase activity, which was used as an internal standard to normalize the luciferase activity directed by the test plasmid. Transfection experiments were performed in triplicate with three independently isolated sets. Protein structure prediction of zebrafish NKBa, NKBb or NKF were performed on I-Tasser servers.
# (§2) The response, binding selectivity and signal transduction pathways of the novel tachykinin receptors to their agonists were evaluated by functional expression analysis, using COS-7 cells.
# (§3) The NKB analogues (i.e. the NKBa-analog, NKBb-analog and NKF-analog, as denoted by SEQ ID NO. 44-46) were first analyzed in comparison to their native forms in a transactivation assay, using reporter genes for specific signal transduction pathways. To validate the specificity of the serum-responsive element (SRE)-Luc and cAMP-responsive element (CRE)-Luc reporter systems, specific activators for PLC/PKC and AC/PKA signaling pathways were used in control experiments.
# (§4) Thus, the ability of the three novel piscine peptides (namely, NKBa, NKBb and NKF, denoted by SEQ ID NO.40, 41 and 42), as well as the ability of the three analogous agonistic peptides, namely, NKBa-analog, NKBb-analog and NKF-analog, to differentially activate the different tac3 receptors, using SRE as a reporter gene that follows PKC activation and CRE as a reporter gene for the PKA pathway, was tested. Human NK3R (human NKB receptor) and human NKB served as controls.
# zfTac3rb [2] = assay: Receptor transactivation assay, CRE-Luc reporter (PKA activation), COS-7 cells expressing zfTac3rb; format: cell-based, zebrafish; conditions: mean ± SEM
# Method: as §1, §2, §3, §4
# NK-2 = conditions: GPI; cited from earlier work
# zfTac3ra [3] = assay: Receptor transactivation assay, CRE-Luc reporter (PKA activation), COS-7 cells expressing zfTac3ra; format: cell-based, zebrafish; conditions: mean ± SEM
# Method: as §1, §2, §3, §4
# zfTac3ra [4] = assay: Receptor transactivation assay, SRE-Luc reporter (PKC activation), COS-7 cells expressing zfTac3ra; format: cell-based, zebrafish; conditions: mean ± SEM
# Method: as §1, §2, §3, §4
# [5] = system: sexually mature female zebrafish; assay: In vivo effect of NKBs in zebrafish: LH secretion after intraperitoneal injection; conditions: single intraperitoneal injection; for LH secretion: 20 pmol/g body weight, sexually mature female zebrafish
# Method: In vivo studies involved administering NKBa, NKBb or NKF and the analogues thereof, denoted by SEQ ID NO. 40-42 and 44-46, respectively to immature fish (20 fish/treatment). The circulating levels of E2, 11KT, LH and FSH were determined prior to hormonal manipulations, in order to confirm that these fish were indeed sexually immature. The fish were injected intramuscularly (i.m.) or intraperitonealy (i.p.) at various doses. Adult female zebra fish were injected intraperitoneally with 20 pmol/g body weight. Control fish were injected with saline. Plasma samples were collected at time 0, and specific times after the administration of the peptide/s, to determine the levels of E2, 11KT, LH and FSH.
# To further characterize the role of the NKB/NKBR system in fish reproduction the in vivo biological function of zebrafish NKB peptides was next examined.
# Mature female carp = assay: Gonadotropin release from mature carp in vivo (LH by ELISA); conditions: for LH level: mature female carp just before spawning, injected 20 μg/kg body weight
# Method: Mature female carp, just before spawning, were injected with NKBa, NKBb and NKF analogues, denoted by SEQ ID NO.44, SEQ ID NO.45 and SEQ ID NO.46, respectively (20 μg/kg body weight). LH levels was measured by specific ELISA, according to Aizen et al. 2012 [33].
# Juvenile Tilapia = assay: Gonadotropin release in vivo from juvenile tilapia (plasma LH and FSH by ELISA); set-up: species or system Tilapia (Oreochromis niloticus); conditions: for FSH secretion / LH secretion: Juvenile Tilapia, injected at 0.5 or 5 μg/Kg BW
# Method: Tilapia females (two-months old) were injected with the NKBa analogue denoted by SEQ ID NO.44 or the NKF analogue denoted by SEQ ID NO.46 at 0.5 or 5 μg/kg body weight (BW). Blood was withdrawn from the caudal vein and plasma Luteinizing hormone (LH) and Follicle-stimulating hormone (FSH) levels were measured using a homologous sensitive enzyme-linked immunosorbent assay (ELISA), as described by Aizen et al. 2007 [33].
# Tilapia pituitary cells = assay: Gonadotropin release from tilapia pituitary dispersed cells; format: cell-based; conditions: 10 nM, 4 hr
# Method: Tilapia pituitary cells were subjected to enzymatic dispersion. Pituitary cells were stimulated with 10 nM of the NKBa or NKF analogue, denoted by SEQ ID NO.44 and SEQ ID NO.46, respectively, for 4 hr, when the medium was collected. […] Stimulation of tilapia pituitary cells with GnRH at [10 nM] was used as a control.
# huNK3R [6] = molecular target: T1, huNK3R (Homo sapiens, UniProt P29371); assay: Receptor transactivation assay, CRE-Luc reporter (PKA activation), COS-7 cells expressing human NK3R; format: cell-based; conditions: Table 5, CRE-Luc follows PKA activation, mean ± SEM
# T1 construct: host or cells: COS-7
# T1 sequence (P29371 1-465): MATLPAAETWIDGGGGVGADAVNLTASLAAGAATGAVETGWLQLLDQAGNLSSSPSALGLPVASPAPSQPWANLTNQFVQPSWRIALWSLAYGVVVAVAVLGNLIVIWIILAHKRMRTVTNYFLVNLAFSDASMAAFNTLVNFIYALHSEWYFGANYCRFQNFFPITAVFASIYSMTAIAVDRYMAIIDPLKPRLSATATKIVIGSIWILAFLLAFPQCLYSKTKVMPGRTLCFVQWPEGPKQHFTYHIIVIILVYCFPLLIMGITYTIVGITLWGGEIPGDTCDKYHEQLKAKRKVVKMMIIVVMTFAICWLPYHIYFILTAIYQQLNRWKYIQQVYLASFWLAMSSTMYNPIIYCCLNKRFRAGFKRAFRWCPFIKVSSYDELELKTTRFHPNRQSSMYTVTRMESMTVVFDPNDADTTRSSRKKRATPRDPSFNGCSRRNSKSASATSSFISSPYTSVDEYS
# Method: In order to study the signaling pathways of the novel zebrafish NKBs, the entire coding regions of zftac3ra (denoted by SEQ ID NO:6) or zftac3rb (denoted by SEQ ID NO:7), or the cDNA clone for human NK3R (obtained from the Missouri S&T cDNA Resource Center, were inserted into pcDNA3.1 (Invitrogen). The luciferase assay was conducted according to Biran et al., 2008 [4] COS-7 cells were grown in DMEM supplemented with 10% FBS, 1% glutamine, 100 U/ml penicillin, and 100 mg/ml streptomycin (Biological Industries) under 5% CO2 until confluent. Cotransfection of either pc-zftac3ra, pc-zftac3rb or pc-Htac3r (at 3 μg/plate), a reporter plasmid (at 2 μg/plate), and pCMV-β-galactosidase (at 1 μg/plate) was carried out with FuGENE 6.0 reagent (Roche). The cells were serum starved for 36 h, stimulated with vehicle or various concentrations of either human (Sigma) or zebrafish NKBs for 6 h, and then harvested and analyzed. Lysates prepared from the harvested cells were assayed for both luciferase activity and β-galactosidase activity, which was used as an internal standard to normalize the luciferase activity directed by the test plasmid. […]
# The response, binding selectivity and signal transduction pathways of the novel tachykinin receptors to their agonists were evaluated by functional expression analysis, using COS-7 cells. […]
# huNK3R [7] = molecular target: T1, huNK3R; assay: Receptor transactivation assay, SRE-Luc reporter (PKC activation), COS-7 cells expressing human NK3R; format: cell-based
# Method: In order to study the signaling pathways of the novel zebrafish NKBs, the entire coding regions of zftac3ra (denoted by SEQ ID NO:6) or zftac3rb (denoted by SEQ ID NO:7), or the cDNA clone for human NK3R (obtained from the Missouri S&T cDNA Resource Center, were inserted into pcDNA3.1 (Invitrogen). The luciferase assay was conducted according to Biran et al., 2008 [4] COS-7 cells were grown in DMEM supplemented with 10% FBS, 1% glutamine, 100 U/ml penicillin, and 100 mg/ml streptomycin (Biological Industries) under 5% CO2 until confluent. Cotransfection of either pc-zftac3ra, pc-zftac3rb or pc-Htac3r (at 3 μg/plate), a reporter plasmid (at 2 μg/plate), and pCMV-β-galactosidase (at 1 μg/plate) was carried out with FuGENE 6.0 reagent (Roche). The cells were serum starved for 36 h, stimulated with vehicle or various concentrations of either human (Sigma) or zebrafish NKBs for 6 h, and then harvested and analyzed. Lysates prepared from the harvested cells were assayed for both luciferase activity and β-galactosidase activity, which was used as an internal standard to normalize the luciferase activity directed by the test plasmid. Transfection experiments were performed in triplicate with three independently isolated sets.
# [8] = system: NKB receptors (human NKBR, zebrafish Tac3ra, Tac3rb); assay: Receptor transactivation assay, statements in words across SRE-Luc and CRE-Luc reporters and receptors; format: cell-based; conditions: both zebrafish tac3 receptors, in both signal transduction systems
# Method: as §1, §2, §4
# [9] = molecular target: T2, NKB receptors (human NKBR, zebrafish Tac3ra, Tac3rb) (Homo sapiens, UniProt P29371); assay: as above; format: cell-based; conditions: human NKBR (huNK3R), in both signal transduction systems (SRE-Luc and CRE-Luc)
# T2 construct: expressed in transfected cells; host or cells: COS-7
# T2 sequence (P29371 1-465): T1 sequence (P29371 1-465)
# Method: as §1, §2, §4
# [10] = Table 5, COS-7 cells, SRE-Luc follows PKC activation, read-out: EC50 SRE-Luc zfTac3rb
# [11] = Table 7 (native peptides and analogues), PKC activation, read-out: EC50 using SRE, zfTac3rb
# [12] = Table 5, COS-7 cells, CRE-Luc follows PKA activation, read-out: EC50 CRE-Luc zfTac3rb
# [13] = Table 6 (native peptides and analogues), PKA activation, read-out: EC50 using CRE-Luc, zfTac3rb
# [14] = Table 5, COS-7 cells, CRE-Luc follows PKA activation, read-out: EC50 CRE-Luc zfTac3ra
# [15] = Table 6 (native peptides and analogues), PKA activation, read-out: EC50 using CRE-Luc, zfTac3ra
# [16] = Table 5, COS-7 cells, SRE-Luc follows PKC activation, read-out: EC50 SRE-Luc zfTac3ra
# [17] = Table 7 (native peptides and analogues), PKC activation, read-out: EC50 using SRE, zfTac3ra
# [18] = tilapia females two-months old, injected 5 μg/kg BW, listed as NKF analogue
SMILES,EC50 (zfTac3rb [1]; [10]),EC50 (zfTac3rb [1]; [11]),EC50 (zfTac3rb [2]; [12]),EC50 (zfTac3rb [2]; [13]),EC50 (zfTac3ra [3]; [14]),EC50 (zfTac3ra [3]; [15]),EC50 (zfTac3ra [4]; [16]),EC50 (zfTac3ra [4]; [17]),LH secretion [5],FSH secretion (Juvenile Tilapia),LH secretion (Juvenile Tilapia),release of FSH from tilapia pituitary cells (Tilapia pituitary cells),further results
"CSCC[C@H](NC(=O)[C@H](CC(C)C)NC(=O)CNC(=O)[C@H](Cc1ccccc1)N(C)C(=O)[C@H](Cc1ccccc1)NC(=O)[C@H](CC(=O)O)NC(=O)CCC(=O)O)C(N)=O [Senktide, Succ-Asp-Phe-N(Me)Phe-Gly-Leu-Met-NH2, reference compound] (Suc-DF[NMeF]GLM-NH2)",2.72 ± 1.54 nM,2.72 ± 1.54 nM,20.1 ± 15.1 nM,20.1 ± 15.1 nM,49 ± 14.9 nM,49 ± 14.9 nM,2.67 ± 1.44 nM,2.68 ± 1.44 nM,less pronounced,,,,EC50 (NK-2): > 200000 nM
"CC[C@H](C)[C@H](NC(=O)[C@H](CC(=O)O)NC(=O)CCC(=O)O)C(=O)N[C@@H](Cc1ccccc1)C(=O)N(C)[C@H](C(=O)NCC(=O)N[C@@H](CC(C)C)C(=O)N[C@@H](CCSC)C(N)=O)C(C)C [zfNKBa-analog, Succ-Asp-Ile-Phe-N(Me)Val-Gly-Leu-Met-NH2] (Suc-DIF[NMeV]GLM-NH2)",,0.29 nM,,11.9 ± 16.9 nM,,6.94 ± 1.28 nM,,0.15 ± 0.19 nM,,significant increase,significant increase,significantly increased,"LH level (Mature female carp; listed as NKBa analogue): significant elevation; also recorded: increased the level of LH significantly; EC50 (zfTac3rb [2]; Table 6 (native peptides and analogues), PKA activation, listed as NKBa-analog, read-out: EC50 using CRE-Luc, zfTac3rb): 11.9 nM"
"CSCC[C@H](NC(=O)[C@H](CC(C)C)NC(=O)CNC(=O)[C@H](C(C)C)N(C)C(=O)[C@H](Cc1ccccc1)NC(=O)[C@H](CO)NC(=O)[C@H](CC(=O)O)NC(=O)CCC(=O)O)C(N)=O [zfNKF-analog, Succ-Asp-Ser-Phe-N(Me)Val-Gly-Leu-Met-NH2]",,0.54 ± 0.39 nM,,7.75 nM,,9.14 ± 1.27 nM,,0.31 nM,,significant increase,significant increase,significantly increased,"LH level (Mature female carp; listed as NKF analogue): significant elevation; also recorded: increased the level of LH significantly; persistence of the LH effect (Mature female carp; mature female carp, 20 μg/kg body weight, throughout the experiment): remained constant throughout the experiment; plasma FSH level (Juvenile Tilapia; [18]): significant increase; also recorded: increased significantly; plasma LH level (Juvenile Tilapia; [18]): significant increase"
CC[C@H](C)[C@H](NC(=O)[C@H](CC(=O)O)NC(=O)[C@H](CC(N)=O)NC(=O)[C@@H](N)Cc1ccc(O)cc1)C(=O)N[C@@H](CC(=O)O)C(=O)N[C@@H](Cc1ccc(O)cc1)C(=O)N[C@@H](CC(=O)O)C(=O)N[C@@H](CO)C(=O)N[C@@H](Cc1ccccc1)C(=O)N[C@H](C(=O)NCC(=O)N[C@@H](CC(C)C)C(=O)N[C@@H](CCSC)C(N)=O)C(C)C [zfNKF] (H-YNDIDYDSFVGLM-NH2),0.36 ± 0.16 nM,0.37 ± 0.16 nM,1.8 ± 1.55 nM,1.8 nM,4.94 ± 1.83 nM,4.94 ± 1.83 nM,0.54 ± 0.13 nM,0.55 nM,significant increase; also recorded: significant LH secretion,,,,"EC50 (huNK3R [6]): 4.36 ± 1.25 nM; SRE-driven luciferase activity, response (huNK3R [7]; COS-7 cells transiently transfected with human NK3R): elicited an increased response; EC50 (huNK3R [7]; Table 5, COS-7 cells, SRE-Luc follows PKC activation, mean ± SEM): 0.52 ± 0.18 nM; potency [8]: most potent among all tachykinins examined; potency [9]: high potency; magnitude of the induced LH discharge ([5]; compared with GnRH): comparable with that observed in response to GnRH"
